According to patent US6831199B1, “Pyrimidine compounds and derivatives thereof” (G. D. Searle & Co., priority 1995, dated 2004):
Where a name gives a salt, the structure may show the parent alone. Read-outs that look alike come from different tables or passages of the source.

Columns and labels:
[1] = biological target: T1, Human vitronectin receptor (αvβ3) (Homo sapiens, UniProt P05106+P06756); assay: Vitronectin adhesion assay (solid phase receptor assay, competition with biotinylated vitronectin); type: binding; details: read-out: AvB3 IC50
T1 construct: Human vitronectin receptor (αvβ3) was purified from human placenta; from tissue; host or cells: human placenta
Summary of the method: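 Purified human αvβ3 coated overnight at 4 °C in TBS with 1.0 mM Ca++, Mg++, Mn++, pH 7.4; compounds (top final 1.0×10^−4 M) competed with 1 nM biotinylated vitronectin for 2 h at room temperature. Bound ligand detected by HRP anti-biotin/OPD at A450; values normalized to no-competitor controls, four-parameter curve fit.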

platelet rich plasma = assay: Human platelet rich plasma assay (ADP induced platelet aggregation); type: cell-based; details: ADP induced platelet aggregation in human platelet rich plasma, read-out: Human PRP
Description: Human Platelet Rich Plasma Assays
Healthy aspirin free donors were selected from a pool of volunteers. The harvesting of platelet rich plasma and subsequent ADP induced platelet aggregation assays were performed as described in Zucker, M. B., “Platelet Aggregation Measured by the Photometric Method”, Methods in Enzymology 169(1989):117-133. Standard venipuncture techniques using a butterfly allowed the withdrawal of 45 mL of whole blood into a 60 mL syringe containing 5 mL of 3.8% trisodium citrate. Following thorough mixing in the syringe, the anti-coagulated whole blood was transferred to a 50 mL conical polyethylene tube. The blood was centrifuged at room temperature for 12 minutes at 200×g to sediment non-platelet cells. Platelet rich plasma was removed to a polyethylene tube and stored at room temperature until used. Platelet poor plasma was obtained from a second centrifugation of the remaining blood at 2000×g for 15 minutes. Platelet counts are typically 300,000 to 500,000 per microliter. Platelet rich plasma (0.45 mL) was aliquoted into siliconized cuvettes and stirred (1100 rpm) at 37° C. for 1 minute prior to adding 50 uL of pre-diluted test compound. After 1 minute of mixing, aggregation was initiated by the addition of 50 uL of 200 uM ADP. Aggregation was recorded for 3 minutes in a Payton dual channel aggregometer (Payton Scientific, Buffalo, N.Y.). The percent inhibition of maximal response (saline control) for a series of test compound dilutions was used to determine a dose response curve.

[2] = biological target: T2, Human fibrinogen receptor (αIIbβ3) (Homo sapiens, UniProt P05106+P08514); assay: Purified IIb/IIIa receptor assay (solid phase receptor assay, competition with biotinylated vitronectin); type: binding; details: read-out: IIb/IIIa IC50
T2 construct: Human fibrinogen receptor (αIIbβ3) was purified from outdated platelets; from tissue; host or cells: outdated human platelets
Summary of the method: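 Purified platelet αIIbβ3 coated overnight at 4 °C in TBS with 1.0 mM Ca/Mg/Mn, pH 7.4, then BSA-blocked. Compounds (top 1.0×10^−4 M) competed with 1 nM biotinylated vitronectin for 2 h at room temperature. Bound label detected by HRP anti-biotin, A450; values normalized to no-competitor controls, four-parameter fit.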

Structure (SMILES)	IC50 [1] [µM]	IC50 (platelet rich plasma; Homo sapiens, Platelet) [µM]	IC50 [2] [µM]	IC50 (platelet rich plasma) [µM]
C#C[C@H](CC(=O)O)NC(=O)CNC(=O)c1c(F)c(F)cc(NC(=N)N)c1F [Example 35, βS-[[2-[[[3-[(aminoiminomethyl)amino]-2,5,6-trifluorophenyl]carbonyl]amino]acetyl]amino]-4-pentynoic acid, trifluoroacetate salt]	0.0571	69.5	0.00621	
N#C/N=C(/NCc1cccnc1)Nc1cccc(C(=O)NCC(=O)NC(CC(=O)O)c2ccccc2)c1 (stereo not drawn) [Example 146, β-[[2-[[[3-[[(cyanoimino)[3-pyridinylmethyl)amino]methyl]amino]phenyl]carbonyl]amino]acetyl]amino]benzenepropanoic acid, bis(trifluoroacetate)salt]	0.0143	> 200	0.879	
N=C(N)Nc1cccc(C(=O)NCC(=O)NC(CCSc2ccccc2C(=O)O)CC(=O)O)c1 (racemic) [60(B), (±)2-[3-[[2-[[[3-[(aminoiminomethyl)amino]phenyl)carbonyl]amino]acetyl]amino]-4-carboxybutyl]thio]benzoic acid, trifluoroacetate salt]	0.00121		0.0727	> 200
CCN/C(=N\C#N)Nc1cccc(C(=O)NCC(=O)NC(CC(=O)O)c2ccccc2)c1 (stereo not drawn) [Example 139, β-[[2-[[[3-[[(cyanoimino)(ethylamino)methyl]amino]phenyl]carbonyl]amino]acetyl]amino]benzenepropanoic acid]	0.0238	> 200	16.1	
CC(NC(=O)Nc1cccc(C(=O)NCC(=O)NC(CC(=O)O)c2cccnc2)c1)c1ccccc1 (stereo not drawn) [Example 271, β-[[2-[[[3-[[[(1-phenylethyl)amino]carbonyl]amino]phenyl]carbonyl]amino]acetyl]amino]pyridine-3-propanoic acid, trifluoroacetate salt]	0.0299		4.61	
Cc1ccc(C(=O)NCC(=O)NC(CC(=O)O)c2cccnc2)cc1N (stereo not drawn) [Example 84, β-[[2-[[(3-amino-4-methylphenyl)carbonyl]amino]acetyl]amino]pyridine-3-propanoic acid, bis(trifluoroacetate)salt]	2.8		0.246	
N=C(N)NCc1cccc(C(=O)NCC(=O)NC(CC(=O)O)c2cccnc2)c1 (racemic) [Example 85, (±)β-[[2-[[[3-[[(aminoiminomethyl)amino]methyl]phenyl]carbonyl]amino]acetyl]amino]pyridine-3-propanoic acid, bis(trifluoroacetate)salt]	0.00665		0.00807	
N#C/N=C(/N)Nc1cccc(C(=O)NCC(=O)NC(CC(=O)O)c2cc(Cl)cc(Cl)c2)c1 (stereo not drawn) [Example 160, β-[[2-[[[3-[[amino(cyanoimino)methyl]amino]phenyl]carbonyl]amino]acetyl]amino]-3,5-dichlorobenzenepropanoic acid]	0.0256		10.4	
CCOC(=O)CC(NC(=O)CNC(=O)c1cccc(NC(N)=S)c1)c1ccccc1 (stereo not drawn) [Example 116, ethyl β-[[2-[[[3-[(aminothioxomethyl)amino]phenyl]carbonyl]amino]acetyl]amino]benzenepropanoate]	15.5		> 100	
N=C(N)Nc1cccc(C(=O)NCC(=O)NC(CC(=O)O)c2cc(Cl)cc(Cl)c2Cl)c1 (stereo not drawn) [Example 254, β-[[2-[[[3-[(aminoiminomethyl)amino]phenyl]carbonyl]amino]acetyl]amino]-2,3,5-trichlorobenzenepropanoic acid, trifluoroacetate salt]	0.0165		6.91	
O=C(O)CC(NC(=O)CNC(=O)c1cccc(NC(=O)NCc2nc3ccccc3[nH]2)c1)c1cc(Cl)cc(Cl)c1 (stereo not drawn) [Example 272, β-[[2-[[[3-[[[[(1H-benzimidazol-2-yl)methyl)amino]carbonyl]amino]phenyl]carbonyl]amino]acetyl]amino]-3,5-dichlorobenzenepropanoic acid, trifluoroacetate salt]	0.893		8.21	
CCOC(=O)CC(NC(=O)CNC(=O)c1cccc(N/C(=N/C#N)NCc2ccccn2)c1)c1ccccc1 (stereo not drawn) [Example 143, ethyl β-[[2-[[[3-[[(cyanoimino)[2-pyridinylmethyl)amino]methyl]amino]phenyl]carbonyl]amino]acetyl]amino]benzenepropanoate, trifluoroacetate salt]	6.7		> 100	
CCOC(=O)CC(NC(=O)CNC(=O)c1cccc(NC2=NCCS2)c1)c1cccnc1 (stereo not drawn) [Example 100, ethyl β-[[2-[[[3-[(4,5-dihydrothiazol-2-yl)amino]phenyl]carbonyl]amino]acetyl]amino]pyridine-3-propanoate, trifluoroacetate salt]	8.56		> 100	
Cc1ccc(S(=O)(=O)NC(=O)Nc2cccc(C(=O)NCC(=O)NC(CC(=O)O)c3cccnc3)c2)cc1 (stereo not drawn) [Example 112, β-[[2-[[[3-[[[[(4-methylphenyl)sulfonyl]amino]carbonyl]amino]phenyl]carbonyl]amino]acetyl]amino]pyridine-3-propanoic acid, trifluoroacetate salt]	0.284		6.34	
C#C[C@H](CC(=O)OCC)NC(=O)CNC(=O)c1cccc(NC(=N)N)c1 [Example 58, ethyl 3S-[[2-[[[3-[(aminoiminomethyl)amino]phenyl)carbonyl]amino]acetyl]amino]-4-pentynoate, trifluoroacetate salt]	0.162		5.74	

More lines, main results first:

IC50 [1] [µM]	IC50 (platelet rich plasma; Homo sapiens, Platelet) [µM]	IC50 [2] [µM]	Structure (SMILES)	IC50 (platelet rich plasma) [µM]
0.00104	80	0.0159	N=C(N)Nc1cccc(C(=O)NCC(=O)NC(CC(=O)O)c2ccc3c(c2)OCO3)c1 (racemic) [Example 6, (±)β-[[2-[[[3-[(aminoiminomethyl)amino]phenyl]carbonyl]amino]acetyl]amino]-1,3-benzodioxole-5-propanoic acid, trifluoroacetate salt]	
0.00152		0.213	N=C(N)Nc1cccc(C(=O)NCC(=O)NC(CC(=O)O)c2ccn[nH]2)c1 (stereo not drawn) [Example 252, β-[[2-[[[3-[(aminoiminomethyl)amino]phenyl]carbonyl]amino]acetyl]amino]-1H-pyrazole-3-propanoic acid, trifluoroacetate salt]	
0.00074		0.0653	N=C(N)Nc1cccc(C(=O)NCC(=O)NC(CC(=O)O)c2cccc(OCC(=O)O)c2)c1 (stereo not drawn) [Example 260, β-[[2-[[[3-[(aminoiminomethyl)amino]phenyl]carbonyl]amino]acetyl]amino]-3-(carboxymethoxy)benzenepropanoic acid, trifluoroacetate salt]	
0.00299		0.424	N=C(N)Nc1cccc(C(=O)NCC(=O)NC(CC(=O)O)c2cc(Cl)ccc2O)c1 (racemic) [Example 231, (±)β-[[2-[[[3-[(aminoiminomethyl)amino]phenyl]carbonyl]amino]acetyl]amino]-5-chloro-2-hydroxybenzenepropanoic acid, trifluoroacetate salt, monohydrate]	
0.00416		11.5	O=C(O)CC(NC(=O)CNC(=O)c1cccc(NC(=O)NNc2ccccc2)c1)c1cccnc1 (stereo not drawn) [Example 281, β-[[2-[[[3-[[[(phenylamino)amino]carbonyl]amino]phenyl]carbonyl]amino]acetyl]amino]pyridine-3-propanoic acid, trifluoroacetate salt]	
0.00358		0.223	N=C(N)Nc1cccc(C(=O)NCC(=O)NC(CC(=O)O)c2ncc[nH]2)c1 (racemic) [Example 364, (±)β-[[2-[[[3-[(aminoiminomethyl)amino]phenyl]carbonyl]amino]acetyl]amino]-1H-imidazole-2-propanoic acid, tris(trifluoroacetate)salt]	
0.00124		0.172	COc1cc(C(CC(=O)O)NC(=O)CNC(=O)c2cccc(NC(=N)N)c2)cc(Br)c1OC (racemic) [Example 262, (±)β-[[2-[[[3-[(aminoiminomethyl)amino]phenyl]carbonyl]amino]acetyl]amino]-3-bromo-4,5-dimethoxybenzenepropanoic acid, trifluoroacetate salt]	
0.00162		1.02	N=C(N)Nc1cc(C(=O)O)cc(C(=O)NCC(=O)NC(CC(=O)O)c2cc(Cl)cc(Cl)c2)c1 (stereo not drawn) [Example 290, β-[[2-[[[3-[(aminoiminomethyl)amino]-5-carboxyphenyl]carbonyl]amino]acetyl]amino]-3,5-dichlorobenzenepropanoic acid, trifluoroacetate salt]	
